Results published in PMC3003444 (Chemistry & biology, 2010).
Converted amounts (≈) assume the structure as drawn. Like-named read-outs stand apart in the source and are kept apart here. Marks after values point to notes of the source that are not given here.

Tests used:
[1] = tested on: Staphylococcus epidermidis; test: microbe, parasite or virus in culture; assay type: cell-based
[2] = tested on: Staphylococcus haemolyticus; test: microbe, parasite or virus in culture; assay type: cell-based
[3] = tested on: Rhodococcus opacus; test: microbe, parasite or virus in culture; assay type: cell-based
[4] = tested on: Corynebacterium glutamicum; test: microbe, parasite or virus in culture; assay type: cell-based
[5] = tested on: Helicobacter pylori; test: microbe, parasite or virus in culture; assay type: cell-based
[6] = tested on: Yersinia pestis; test: microbe, parasite or virus in culture; assay type: cell-based
[7] = tested on: Chlamydia trachomatis; test: microbe, parasite or virus in culture; assay type: cell-based
[8] = tested on: Streptococcus pneumoniae; test: microbe, parasite or virus in culture; assay type: cell-based
[9] = tested on: Streptococcus pyogenes; test: microbe, parasite or virus in culture; assay type: cell-based
[10] = tested on: Lactococcus lactis; assay type: cell-based
[11] = tested on: Corynebacterium efficiens; test: microbe, parasite or virus in culture; assay type: cell-based
[12] = tested on: Staphylococcus aureus; assay type: cell-based; settings: S. aureus mutant, Pro^29 replaced by Ser
[13] = tested on: Brevibacillus brevis; test: microbe, parasite or virus in culture; assay type: cell-based
[14] = tested on: Bacillus subtilis; test: microbe, parasite or virus in culture; assay type: cell-based
[15] = tested on: Streptococcus agalactiae; test: microbe, parasite or virus in culture; assay type: cell-based
[16] = tested on: Escherichia coli; test: microbe, parasite or virus in culture; assay type: cell-based
[17] = tested on: Pseudomonas aeruginosa; test: microbe, parasite or virus in culture; assay type: cell-based
[18] = tested on: Klebsiella pneumoniae; test: microbe, parasite or virus in culture; assay type: cell-based
[19] = tested on: Lactobacillus gasseri; test: microbe, parasite or virus in culture; assay type: cell-based
[20] = tested on: Lactobacillus acidophilus; test: microbe, parasite or virus in culture; assay type: cell-based
[21] = tested on: Lactobacillus plantarum; test: microbe, parasite or virus in culture; assay type: cell-based; settings: Lactiplantibacillus plantarum
[22] = tested on: Clostridium difficile; test: microbe, parasite or virus in culture; assay type: cell-based; settings: Clostridioides difficile
[23] = tested on: Clostridium bolteae; test: microbe, parasite or virus in culture; assay type: cell-based; settings: Enterocloster bolteae
[24] = tested on: Clostridium perfringens; test: microbe, parasite or virus in culture; assay type: cell-based
[25] = tested on: Bacteroides fragilis; test: microbe, parasite or virus in culture; assay type: cell-based
[26] = tested on: Prevotella copris; test: microbe, parasite or virus in culture; assay type: cell-based
[27] = tested on: Lactobacillales; test: organism not typed; assay type: cell-based
[28] = tested on: Clostridia and Bacteriodetes; test: MIC, Clostridia and Bacteriodetes; assay type: cell-based
[29] = tested on: E. coli strains harboring the indicated amino acid at SPase residue 84
[30] = tested on: Enterococcus faecalis; settings: cited from earlier work
[31] = tested on: E. coli strains harboring the indicated amino acid at SPase residue 84; test: MIC for E. coli strains with mutant SPase residue 84; settings: for MIC: Escherichia coli

CCCCCCCCCCCCCCCC(=O)N(C)[C@H](CO)C(=O)N[C@H](C)C(=O)NCC(=O)N(C)[C@@H]1C(=O)N[C@@H](C)C(=O)N[C@H](C(=O)O)Cc2ccc(O)c(c2)-c2cc1ccc2O [arylomycin C16]
MIC ([1]; Staphylococcus epidermidis): 0.25 mg/L (≈ 0.284 µM) | elevated MIC compared to the wild type strain ([1]; resistant mutants (remainder), SpsIB Ser to Pro at position 31): greater than 256 fold | elevated MIC compared to the wild type strain ([1]; resistant mutants (~75%), SpsIB Ser to Pro at position 29): 32 fold | MIC [2]: 2 mg/L (≈ 2.27 µM) | MIC [3]: 2 mg/L (≈ 2.27 µM) | MIC [4]: 2 mg/L (≈ 2.27 µM) | MIC [5]: 4 mg/L (≈ 4.54 µM) | MIC [6]: 4 mg/L (≈ 4.54 µM) | MIC [7]: 6 mg/L (≈ 6.81 µM) | MIC [8]: 16 mg/L (≈ 18.2 µM) | MIC [9]: 16 mg/L (≈ 18.2 µM) | MIC [10]: 16, >128 ^a μg/ml | MIC [11]: > 64 mg/L | sensitivity of Pro to Ser SPase mutant strain [12]: high degree of sensitivity | MIC [13]: > 64 mg/L | MIC [14]: > 128 mg/L | MIC [15]: > 128 mg/L | MIC [16]: > 128 mg/L | decrease of MIC on permeabilizing with polymyxin B nonapeptide ([17]; P. aeruginosa Pro to Ser mutant): ≤ 4 fold | sensitivity of Pro to Ser SPase mutant strain ([17]; P. aeruginosa mutant, Pro^84 replaced by Ser): high degree of sensitivity | MIC ([17]; Pseudomonas aeruginosa): > 128 mg/L | MIC [18]: > 128 mg/L | MIC [19]: > 128 mg/L | MIC [20]: > 128 mg/L | MIC [21]: > 128 mg/L | MIC [22]: > 16 mg/L | MIC [23]: > 16 mg/L | MIC [24]: > 16 mg/L | MIC [25]: > 16 mg/L | MIC [26]: > 16 mg/L | MIC [27]: > 64 mg/L | MIC [28]: > 16 mg/L | decrease of MIC on permeabilizing with polymyxin B nonapeptide [29]: ≤ 4 fold | MIC [30]: >64 ^b μg/ml | sensitivity of Pro to Ser SPase mutant strain ([31]; E. coli mutant, Pro^84 replaced by Ser): high degree of sensitivity | MIC ([31]; His at SPase residue 84 (temperature sensitive phenotype)): 4 mg/L (≈ 4.54 µM) | MIC ([31]; Phe at SPase residue 84 (temperature sensitive phenotype)): 2 mg/L (≈ 2.27 µM) | MIC ([31]; Pro at SPase residue 84, detection limit 256 μg/ml): > 256 mg/L | MIC ([31]; read-out: MICs, all of the other amino acids (not Pro) at SPase residue 84): ≤ 16 mg/L
